Columns and labels:
Assay type in all cases: in vivo
Venturia inaequalis = assay: Fungicidal activity: Apple Scab (VENTIN); details: 100 ppm, 1 DP (1 Day Protectant)
[1] = tested on: Magnaporthe grisea; Anamorph: Pyricularia oryzae; details: 100 ppm, 1 DP (1 Day Protectant), rice
Cercospora beticola = assay: Fungicidal activity: Leaf Spot of Sugar Beets (CERCBE); details: 100 ppm, 1 DP (1 Day Protectant), sugar beet
Experimental: Technical grades of materials were dissolved in acetone, which were then mixed with nine volumes of water containing 110 ppm Triton X-100. The fungicide solutions were applied onto wheat seedlings using an automated booth sprayer to run-off. All sprayed plants were allowed to air dry prior to further handling. All fungicides were evaluated using the aforementioned method for their activity vs. all target diseases, unless stated otherwise. Wheat leaf blotch and brown rust activity were also evaluated using track spray applications, in which case the fungicides were formulated as EC formulations, containing 0.1% Trycol 5941 in the spray solutions. Wheat plants (variety Yuma) were grown from seed in a greenhouse in 50% mineral soil/50% soil-less Metro mix until the first leaf was fully emerged, with 7-10 seedlings per pot. These plants were inoculated with an aqueous spore suspension of Septoria tritici either prior to or after fungicide treatments. After inoculation the plants were kept in 100% relative humidity (one day in a dark dew chamber followed by two to three days in a lighted dew chamber at 20° C.) to permit spores to germinate and infect the leaf. The plants were then transferred to a greenhouse set at 20° C. for disease to develop. When disease symptoms were fully expressed on the 1st leaves of untreated plants, infection levels were assessed on a scale of 0 to 100 percent disease severity. Percent disease control was calculated using the ratio of disease severity on treated plants relative to untreated plants. Evaluation of Fungicidal Activity: Leaf Spot of Sugar Beets (Cercospora beticola; Bayer Code CERCBE) Sugar beet plants (variety HH88) were grown in soil-less Metro mix and trimmed regularly to maintain a uniform plant size prior to test. Plants were inoculated with a spore suspension 24 hr after fungicide treatments. Inoculated plants were kept in a dew chamber at 22° C. for 48 hr then incubated in a greenhouse set at 24° C. under a clear plastic hood with bottom ventilation until disease symptoms were fully expressed. Fungicide formulation, application and disease assessment on the sprayed leaves followed the procedures as described in the Example A.

Erysiphe cichoracearum = assay: Fungicidal activity: Powdery Mildew of Cucumber (ERYSCI); details: 100 ppm, 1 DP (1 Day Protectant)
Uncinula necator = assay: Fungicidal activity: Grape Powdery Mildew (UNCINE); details: 100 ppm, 1 DP (1 Day Protectant)
Experimental: Technical grades of materials were dissolved in acetone, which were then mixed with nine volumes of water containing 110 ppm Triton X-100. The fungicide solutions were applied onto wheat seedlings using an automated booth sprayer to run-off. All sprayed plants were allowed to air dry prior to further handling. All fungicides were evaluated using the aforementioned method for their activity vs. all target diseases, unless stated otherwise. Wheat leaf blotch and brown rust activity were also evaluated using track spray applications, in which case the fungicides were formulated as EC formulations, containing 0.1% Trycol 5941 in the spray solutions. Wheat plants (variety Yuma) were grown from seed in a greenhouse in 50% mineral soil/50% soil-less Metro mix until the first leaf was fully emerged, with 7-10 seedlings per pot. These plants were inoculated with an aqueous spore suspension of Septoria tritici either prior to or after fungicide treatments. After inoculation the plants were kept in 100% relative humidity (one day in a dark dew chamber followed by two to three days in a lighted dew chamber at 20° C.) to permit spores to germinate and infect the leaf. The plants were then transferred to a greenhouse set at 20° C. for disease to develop. When disease symptoms were fully expressed on the 1st leaves of untreated plants, infection levels were assessed on a scale of 0 to 100 percent disease severity. Percent disease control was calculated using the ratio of disease severity on treated plants relative to untreated plants. Evaluation of Fungicidal Activity: Grape Powdery Mildew (Uncinula necator; Bayer code […]) Grape seedlings (variety Carignane) were grown in soil-less Metro mix, with one plant per pot, and used in the test when approximately one month old. Plants were inoculated 24 hr after fungicide treatment by shaking spores from infected leaves over test plants. Plants were maintained in a greenhouse set at 20° C. until disease was fully developed. […]

Rhyncosporium secalis = assay: Fungicidal activity: Barley Scald (RHYNSE); details: 100 ppm, 1 DP (1 Day Protectant)
Experimental: Technical grades of materials were dissolved in acetone, which were then mixed with nine volumes of water containing 110 ppm Triton X-100. The fungicide solutions were applied onto wheat seedlings using an automated booth sprayer to run-off. All sprayed plants were allowed to air dry prior to further handling. All fungicides were evaluated using the aforementioned method for their activity vs. all target diseases, unless stated otherwise. Wheat leaf blotch and brown rust activity were also evaluated using track spray applications, in which case the fungicides were formulated as EC formulations, containing 0.1% Trycol 5941 in the spray solutions. Wheat plants (variety Yuma) were grown from seed in a greenhouse in 50% mineral soil/50% soil-less Metro mix until the first leaf was fully emerged, with 7-10 seedlings per pot. These plants were inoculated with an aqueous spore suspension of Septoria tritici either prior to or after fungicide treatments. After inoculation the plants were kept in 100% relative humidity (one day in a dark dew chamber followed by two to three days in a lighted dew chamber at 20° C.) to permit spores to germinate and infect the leaf. The plants were then transferred to a greenhouse set at 20° C. for disease to develop. When disease symptoms were fully expressed on the 1st leaves of untreated plants, infection levels were assessed on a scale of 0 to 100 percent disease severity. Percent disease control was calculated using the ratio of disease severity on treated plants relative to untreated plants. Evaluation of Fungicidal Activity: Barley Scald (Rhyncosporium secalis; Bayer Code […]) Barley seedlings (variety Harrington) were propagated in soil-less Metro mix, with each pot having 8 to 12 plants, and used in the test when first leaf was fully emerged. Test plants were inoculated by an aqueous spore suspension of Rhyncosporium secalis 24 hr after fungicide treatments. After inoculation the plants were kept in a dew room at 20° C. with 100% relative humidity for 48 hr. The plants were then transferred to a greenhouse set at 20° C. for disease to develop. Fungicide formulation, application and disease assessment on the sprayed leaves followed the procedures as described in the Example A.

Phakopsora pachyrhizi = assay: Fungicidal activity: Asian Soybean Rust (PHAKPA); details: 25 ppm, 1DP (1 Day Protectant)
Experimental: Evaluation of Fungicidal Activity: Asian Soybean Rust (Phakopsora pachyrhizi; Bayer Code PHAKPA)
Technical grades of materials were dissolved in acetone, which were then mixed with nine volumes of water containing 0.011% Tween 20. The fungicide solutions were applied onto soybean seedlings using an automated booth sprayer to run-off. All sprayed plants were allowed to air dry prior to further handling.
Soybean plants (variety Williams 82) were grown in soil-less Metro mix, with one plant per pot. Two weeks old seedlings were used for testing. Plants were inoculated either 3 days prior to or 1 day after fungicide treatments. Plants were incubated for 24 h in a dark dew room at 22° C. and 100% relative humidity then transferred to a growth room at 23° C. for disease to develop. Disease severity was assessed on the sprayed leaves.

[2] = tested on: Blumeria graminis f. sp. tritici; assay: Fungicidal activity: Wheat Powdery Mildew (ERYSGT); details: 100 ppm, 1 DP (1 Day Protectant)

Row | SMILES | VENTIN disease control rating (Venturia inaequalis) | PYRIOR disease control rating [1] | CERCBE disease control rating (Cercospora beticola) | ERYSCI disease control rating (Erysiphe cichoracearum) | UNCINE disease control rating (Uncinula necator) | RHYNSE disease control rating (Rhyncosporium secalis) | PHAKPA disease control rating (Phakopsora pachyrhizi) | ERYSGT disease control rating [2]
1 | CCCC[C@@H]1[C@@H](Cc2ccccc2)COC[C@H](NC(=O)c2nccc(OC)c2OCOC(=O)C(C)C)C(=O)O[C@H]1C [compound 1] | B (≤70) | A (>70) | A (>70) | A (>70) | A (>70) | A (>70) | – | –
2 | CCCC[C@@H]1[C@@H](Cc2ccc(C(F)(F)F)cc2)COC[C@H](NC(=O)c2nccc(OC)c2OCOC(C)=O)C(=O)O[C@H]1C [compound 16] | A (>70) | – | A (>70) | A (>70) | A (>70) | A (>70) | – | –
3 | COc1ccnc(C(=O)N[C@H]2COC[C@H](CC3CC3)[C@@H](c3ccccc3)[C@H](C)OC2=O)c1OC(C)=O [compound 100] | – | A (>70) | A (>70) | A (>70) | – | B (≤70) | – | –
4 | COc1ccnc(C(=O)N[C@H]2COC[C@H](Cc3ccccc3)[C@@H](Cc3ccccc3)[C@H](C)OC2=O)c1OC(C)=O [compound 27] | – | A (>70) | A (>70) | B (≤70) | – | A (>70) | – | –
5 | COc1ccnc(C(=O)N[C@H]2COC[C@H](Cc3ccccc3)[C@@H](Cc3ccccc3)[C@H](C)OC2=O)c1OCOC(C)=O [Cmpd. 3, ((2-(((3S,7R,8R,9S)-7,8-dibenzyl-9-methyl-2-oxo-1,5-dioxonan-3-yl)carbamoyl)-4-methoxypyridin-3-yl)oxy)methyl acetate] | – | A (>70) | – | – | – | – | A (>70) | –
6 | COc1ccnc(C(=O)N[C@H]2COC[C@H](c3ccccc3)[C@@H](c3ccccc3)[C@H](C)OC2=O)c1OCOC(C)=O [compound 7] | – | A (>70) | A (>70) | A (>70) | A (>70) | – | – | A (>70)
